Consider 75 compounds from patent US7186831B2, “5-halo-2-alkyl[1,2,4]triazolo[1,5-a]pyrimidin-7-amines” (priority 2001, dated 2007).

The nature of the first series: log P by HPLC. Particulars: EEC directive 79/831 Annex V. A8 by HPLC (gradient method, acetonitrile/0.1% aqueous phosphoric acid). The series is classed as physicochemical.
For the compound `Cc1nc2nc(Cl)c(-c3ccccc3F)c(N3CC(C)OC(C)C3)n2n1` (stereo not drawn) [compound 382], the log partition coefficient (logP) – broadly, a log measure of how a compound divides between an organic and an aqueous phase – is recorded as 2.8.
In the case of `Cc1nc2nc(Cl)c(-c3c(F)cccc3F)c(N3CCCc4ccccc43)n2n1` [compound 446], the logP is reported as 3.34.
In turn, `CC(=O)C1CCN(c2c(-c3c(F)cccc3F)c(Cl)nc3nc(C)nn23)CC1` [compound 442] returned a log partition coefficient (logP) of 2.49.
Same read-out and setting: under `Cc1nc2nc(Cl)c(-c3ccccc3F)c(NOCc3ccccc3)n2n1` [compound 363] stands 2.93.
On the same count and under the same terms, under `Cc1nc2nc(Cl)c(-c3ccccc3F)c(NCC3CC3)n2n1` [compound 393] stands 2.72.
On the same count and under the same terms, under `Cc1nc2nc(Cl)c(-c3ccc(F)cc3F)c(N3CCC(O)C3)n2n1` (stereo not drawn) [compound 415] stands 1.95; under `CCN(Cc1ccco1)c1c(-c2ccc(F)cc2F)c(Cl)nc2nc(C)nn12` [compound 354], 3.39.
Regarding `CCCCONc1c(-c2c(F)cccc2F)c(Cl)nc2nc(C)nn12` [compound 434], the lipophilicity (logP) is 2.96.
Still for that read-out and setting: under `C=C(C)CNc1c(-c2ccccc2F)c(Cl)nc2nc(C)nn12` [compound 394] stands 2.68; under `Cc1nc2nc(Cl)c(-c3ccccc3F)c(NCCC(F)(F)F)n2n1` [compound 395], 2.7.
`Cc1nc2nc(Cl)c(-c3c(F)cccc3F)c(N3CCC(C)(C)CC3)n2n1` [compound 315] gave a logP of 3.91.
The same measure, in the same setting: with `CCC1=CCN(c2c(-c3ccc(F)cc3F)c(Cl)nc3nc(C)nn23)CC1` [compound 290] the figure was 3.94.
The same measure, in the same setting: under `CN(CC1CC1(Cl)Cl)c1c(-c2ccccc2Cl)c(Cl)nc2nc(C3CC3)nn12` (stereo not drawn) [compound 508] stands 4.29; under `Fc1cc(F)c(-c2c(Cl)nc3nc(C4CC4)nn3c2N2CCCC2)c(F)c1` [compound 472], 3.52; under `CC(=O)NC1CCN(c2c(-c3c(F)cccc3F)c(Cl)nc3nc(C)nn23)C1` (stereo not drawn) [compound 305], 1.64.
On the same count and under the same terms, with `Cc1nc2nc(Cl)c(-c3ccccc3F)c(NC3CC(C(F)(F)F)CC(C(F)(F)F)C3)n2n1` (stereo not drawn) [compound 399] the figure was 3.73; with `Cc1nc2nc(Cl)c(-c3ccc(F)cc3F)c(N3CCCC3C)n2n1` (stereo not drawn) [compound 280], 3.14.
`Fc1ccc(-c2c(Cl)nc3nc(C4CC4)nn3c2N2CCCCN2)c(Cl)c1` [compound 504] gave a logP of 3.58.
Consider `CC(=O)C1CCN(c2c(-c3ccc(F)cc3F)c(Cl)nc3nc(C)nn23)CC1` [compound 289], for which the logP is on record as 2.5.
On the same count and under the same terms, under `CC(=O)NC1CCN(c2c(-c3c(F)cccc3F)c(Cl)nc3nc(C)nn23)CC1` [compound 323] stands 1.78.

The series is the same for the next values; noted with them: HPLC, gradient method, acetonitrile/0.1% aqueous phosphoric acid; EEC directive 79/831 Annex V. A8.
On to `CCN(CCOC)c1c(-c2c(F)cc(F)cc2F)c(Cl)nc2nc(C(F)(F)F)nn12` [compound 31], for which the logP amounted to 4.04.
Same read-out and setting: under `CN(C)c1c(-c2ccc(F)cc2F)c(Cl)nc2nc(C3CC3)nn12` [compound 722] stands 3.06.
Same read-out and setting: under `CCc1nc2nc(Cl)c(-c3c(F)cc(F)cc3F)c(N(CC)CC)n2n1` [compound 77] stands 3.71; under `Cc1nc2nc(Cl)c(-c3ccccc3Cl)c(N3CCOCC3)n2n1` [compound 234], 2.38.
In turn, `CC(Nc1c(-c2c(F)cc(F)cc2F)c(Br)nc2nc(C(F)(F)F)nn12)C(F)(F)F` (stereo not drawn) [compound 25] displayed a log partition coefficient (logP) of 3.99.
Still for that read-out and setting: with `CCC(C)Nc1c(-c2ccc(F)cc2F)c(Cl)nc2nc(C)nn12` (stereo not drawn) [compound 194] the figure was 3.01; with `C=C(C)CN(C)c1c(-c2ccccc2Cl)c(Cl)nc2nc(C)nn12` [compound 223], 3.57.
On the same count and under the same terms, with `CCOC(=O)CN(CC)c1c(-c2ccc(F)cc2F)c(Cl)nc2nc(C3CC3)nn12` [compound 595] the figure was 3.54; with `C=C(C)CNc1c(-c2c(F)cccc2F)c(Cl)nc2nc(C)nn12` [compound 183], 2.56; with `Fc1ccc(-c2c(Cl)nc3nc(C4CC4)nn3c2NCC(F)(F)F)c(Cl)c1` [compound 638], 3.37.
Still for that read-out and setting: with `Cc1nc2nc(Cl)c(-c3ccc(F)cc3F)c(NCC(C)(C)C)n2n1` [compound 193] the figure was 3.4; with `Cc1nc2nc(Cl)c(-c3ccc(F)cc3Cl)c(N3CCCCN3)n2n1` [compound 691], 2.94; with `CCOC(=O)CN(c1c(-c2ccc(F)cc2F)c(Cl)nc2nc(C3CC3)nn12)C1CC1` [compound 727], 3.84.
As for `Cc1nc2nc(Cl)c(-c3ccc(F)cc3F)c(NC(C)C)n2n1` [compound 196], the log partition coefficient (logP) is 2.69.
In turn, `Fc1cc(F)c(-c2c(Cl)nc3nc(C(F)(F)F)nn3c2NC2CCCC2)c(F)c1` [compound 32] had a lipophilicity (logP) of 4.25.
On the same count and under the same terms, with `CCc1nc2nc(Cl)c(-c3c(F)cc(F)cc3F)c(NC3CC3)n2n1` [compound 79] the figure was 2.85; with `Cc1nc2nc(Cl)c(-c3ccccc3Cl)c(NC(C)CC(C)C)n2n1` (stereo not drawn) [compound 218], 3.84; with `CCCNc1c(-c2c(F)cc(F)cc2F)c(Cl)nc2nc(CC)nn12` [compound 74], 3.14.
Same read-out and setting: with `Cc1nc2nc(Cl)c(-c3ccccc3Cl)c(NCC3CC3)n2n1` [compound 216] the figure was 2.85.
The same measure, in the same setting: under `C=CCN(C)c1c(-c2ccc(F)cc2F)c(Cl)nc2nc(C(F)(F)F)nn12` [compound 541] stands 4.09.
On to `CCCCN(CC)c1c(-c2ccc(F)cc2F)c(Cl)nc2nc(C3CC3)nn12` [compound 596], for which the logP is recorded as 4.52.
The same measure, in the same setting: with `CCCN(CCOC)c1c(-c2ccc(F)cc2F)c(Cl)nc2nc(C(F)(F)F)nn12` [compound 553] the figure was 4.39; with `CC(C)(Nc1c(-c2c(F)cc(F)cc2F)c(Cl)nc2nc(C(F)(F)F)nn12)C(F)(F)F` [compound 105], 4.37.
For `Fc1cc(F)c(-c2c(Cl)nc3nc(C4CC4)nn3c2N2CCC(F)CC2)c(F)c1` [compound 675], the lipophilicity (logP) is given as 3.68.
Same read-out and setting: under `CC(C)C(C)Nc1c(-c2ccc(F)cc2Cl)c(Cl)nc2nc(C3CC3)nn12` (racemic) [compound 775] stands 4.23; under `Cc1nc2nc(Cl)c(-c3ccc(Cl)cc3Cl)c(N3CCCCO3)n2n1` [compound 817], 3.67; under `C=CCN(CC)c1c(-c2ccc(F)cc2F)c(Cl)nc2nc(C3CC3)nn12` [compound 591], 3.96.
For the compound `CC(C)CN(N)c1c(-c2c(F)cccc2F)c(Cl)nc2nc(C3CC3)nn12` [compound 754], the logP is given as 3.47.
On to `Cc1nc2nc(Cl)c(-c3ccc(F)cc3F)c(NCC3CC3)n2n1` [compound 200], for which the logP amounted to 2.77.
Same read-out and setting: under `N#CCNc1c(-c2ccc(F)cc2F)c(Cl)nc2nc(C3CC3)nn12` [compound 713] stands 2.42; under `Fc1cccc(F)c1-c1c(Cl)nc2nc(C3CC3)nn2c1N1CCOCC1` [compound 683], 2.78; under `COCCNc1c(-c2c(F)cccc2F)c(Cl)nc2nc(C)nn12` [compound 177], 2.12.
For `Cc1nc2nc(Cl)c(-c3c(F)cccc3F)c(N3CCCCO3)n2n1` [compound 524], the lipophilicity (logP) stood at 2.84.
On the same count and under the same terms, under `Cc1nc2nc(Cl)c(-c3ccc(F)cc3F)c(NCCC(F)(F)F)n2n1` [compound 195] stands 2.76; under `CC(C)CNc1c(-c2c(F)cccc2F)c(Cl)nc2nc(C3CC3)nn12` [compound 744], 3.44.
The same measure, in the same setting: under `CCCNc1c(-c2ccc(F)cc2F)c(Cl)nc2nc(C3CC3)nn12` [compound 649] stands 3.2; under `CCCN(CC1CCCO1)c1c(-c2ccc(F)cc2F)c(Cl)nc2nc(C3CC3)nn12` (stereo not drawn) [compound 600], 4.22.
Same read-out and setting: under `Cc1nc2nc(Cl)c(-c3c(F)cccc3Cl)c(NC(C)C(C)C)n2n1` (stereo not drawn) [compound 688] stands 3.43; under `Fc1ccc(-c2c(Cl)nc3nc(C(F)(F)F)nn3c2NC2CCCC(C(F)(F)F)C2)c(F)c1` (stereo not drawn) [compound 536], 4.44.
`C=CCONc1c(-c2c(F)cccc2F)c(Cl)nc2nc(C)nn12` [compound 140] gave a logP of 2.38.
On the same count and under the same terms, under `CCc1nc2nc(Cl)c(-c3c(F)cc(F)cc3F)c(NC(C)C)n2n1` [compound 76] stands 3.15; under `CCOC(=O)CN(C)c1c(-c2c(F)cc(F)cc2F)c(Cl)nc2nc(C)nn12` [compound 150], 2.8; under `CNc1c(-c2c(F)cc(F)cc2F)c(Cl)nc2nc(C)nn12` [compound 90], 2.12.
On the same count and under the same terms, with `C=C(C)CNc1c(-c2ccccc2Cl)c(Cl)nc2nc(C)nn12` [compound 217] the figure was 2.83.
On the same count and under the same terms, with `CC(C)CC(C)Nc1c(-c2ccc(F)cc2Cl)c(Cl)nc2nc(C3CC3)nn12` (stereo not drawn) [compound 637] the figure was 4.61.
Compound `COC(OC)C(C)Nc1c(-c2c(F)cc(F)cc2F)c(Cl)nc2nc(C)nn12` (stereo not drawn) [compound 123] yielded a logP of 2.74.
`CCc1nc2nc(Cl)c(-c3c(F)cc(F)cc3F)c(N(CC)CCOC)n2n1` [compound 30] registered a logP of 3.37.
Same read-out and setting: under `Cc1nc2nc(Cl)c(-c3ccccc3Cl)c(N3CC=CCC3)n2n1` [compound 228] stands 0.75.
On the same count and under the same terms, under `CC(C)(C)Nc1c(-c2ccc(F)cc2F)c(Cl)nc2nc(C(F)(F)F)nn12` [compound 535] stands 4.19; under `CCCN(CC1CCCO1)c1c(-c2c(F)cc(F)cc2F)c(Cl)nc2nc(C)nn12` (stereo not drawn) [compound 163], 3.68.
The same measure, in the same setting: under `CC(Nc1c(-c2ccc(F)cc2Cl)c(Cl)nc2nc(C3CC3)nn12)C(F)(F)F` (racemic) [compound 748] stands 3.77.
Consider `CC(Nc1c(-c2ccc(Cl)cc2Cl)c(Cl)nc2nc(C3CC3)nn12)C(F)(F)F` (single isomer, unassigned) [compound 711], for which the logP amounted to 4.19.
Still for that read-out and setting: with `Fc1cccc(Cl)c1-c1c(Cl)nc2nc(C3CC3)nn2c1N1CCCC1C(F)(F)F` (stereo not drawn) [compound 703] the figure was 4.1.
Still for that read-out and setting: under `Fc1ccc(-c2c(Cl)nc3nc(C(F)(F)F)nn3c2NC2CCCCC2)c(F)c1` [compound 556] stands 4.47; under `C=C(C)CN(CC)c1c(-c2ccc(F)cc2Cl)c(Cl)nc2nc(C)nn12` [compound 643], 4.06.
